Test results reported in patent US7514454B2, “Piperidin-2,6-dione pamoate salts and their use for the treatment of stress-related affective disorders” (Prestwick Pharmaceuticals, Inc., priority 2002, dated 2009).

Assays:
tryptophan hydroxylase = assay: blockade of tryptophan hydroxylase activation; type: biochemical; details: activation by metabolic inhibitors such as guanidine and sodium cyanide
[1] = 1 mg b.i.d. (about 30 μg/kg/day), FDA permitted dose levels; cited from earlier work
[2] = about 4 mg/kg/day (200-400 mg/day for human patients); cited from earlier work
[3] = rats, 200 mg/kg/day p.o., cited from earlier work

Row | blockade of tryptophan hydroxylase activation (tryptophan hydroxylase) | SMILES | anxiolytic properties [1] | effectiveness in the treatment of anxiety and depression [2] | hepatocyte changes revealed by post-mortem examination ([3]; 1 year, not detected by routine transaminase determinations) | weight loss ([3]; over the 1-year period, immediate and continuing) [%]
1 | blocked | COc1cccc(C2(CCCN(C)C)C(=O)NC(=O)CC2(C)C)c1 (centres unmarked) [AGN 2979 pamoate, 3(3-methoxyphenyl)-3-(3-dimethylaminopropyl)-4,4-dimethyl-piperidine-2,6-dione pamoate] | – | – | – | –
2 | – | COc1cccc(C2(CCCN(C)C)C(=O)NC(=O)CC2(C)C)c1.Cl (centres unmarked) [hydrochloride salt of AGN 2979] | only marginally effective | effective | hepatocyte changes | 40
